Results taken from US20140100216A1, “STIMULATORS OF INCRETIN HORMONES SECRETION, METHOD FOR PREPARATION AND USE THEREOF” (priority 2011, published 2014).

Assays:
[1] = target: T1, human TGR5 (hTGR5) receptors (Homo sapiens, UniProt Q8TDU6); test: Agonistic activity towards TGR5 receptors, increase of intracellular cAMP in HEK-293 cells; format: cell-based; conditions: HEK-293 cells expressing hTGR5, read-out: Activity (agonistic activity, EC50 class)
T1 construct: expressed in transfected cells; host or cells: HEK-293
T1 sequence (Q8TDU6 1-330): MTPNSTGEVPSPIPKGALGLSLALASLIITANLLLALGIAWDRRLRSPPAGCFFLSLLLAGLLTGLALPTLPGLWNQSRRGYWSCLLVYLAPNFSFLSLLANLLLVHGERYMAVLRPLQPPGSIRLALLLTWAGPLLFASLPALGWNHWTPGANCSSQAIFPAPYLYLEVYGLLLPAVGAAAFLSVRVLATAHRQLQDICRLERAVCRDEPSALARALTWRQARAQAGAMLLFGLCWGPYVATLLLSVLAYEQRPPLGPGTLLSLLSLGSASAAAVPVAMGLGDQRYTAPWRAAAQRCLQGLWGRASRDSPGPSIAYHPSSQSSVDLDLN
Method: Screening of compounds of the general formula 1 was carried out in experiments on cells of HEK-293 line, in which human TGR5 (hTGR5) receptors were expressed. Agonistic activity of compounds was estimated by increasing of intracellular cAMP concentration.

[2] = system: diabesity mice of db/db line; test: Influence of rectal administration of bile acid GDC on blood glucose level; format: in vivo; conditions: male db/db mice
Method: The influence of rectal administration of glycodeoxycholic acid (GDC) on glucose level in blood was studied at diabesity mice of db/db line. Glucose level at male db/db mice (39.5 g) was measured 24 hs before and at the moment of rectal administration, and then in 1, 2, 3, 4, 5, 6, and 24 hs afterwards. […] The gel was prepared on the base of methyl cellulose water solution (1%) and Tween-80 (2%). GDC BA administration in both doses effectively and statistically valid reduced glucose concentration in plasma of diabesity mice of db/db line (on 24%—at 50 mmol and on 20% at 5 mmol).

[3] = system: diabesity mice of db/db line; test: Influence of rectal BA administration on weight change at diabesity; format: in vivo; conditions: GDC 5 and 50 mmol gel rectally + Sitagliptin 30 mg/kg peroral, weighed 2 days after administration
Method: Influence of rectal administration of glycodeoxycholic acid (GDC) on weight change of mice of db/db line at diabesity was investigated. […] The gel was prepared on the base of methyl cellulose water solution (1%) and Tween-80 (2%). The animals were weighted 2 days before the experiment, at the moment of administration and 2 days after administration of compositions.

Q: How did the EC50 [1] turn out when `O=C(NC1CCCC1)C1c2cc(C(F)(F)F)ccc2OCCN1Cc1cccc(-c2ccccc2)c1` (stereo not drawn) [Compound 14, 4-(3-pheylbenzyl)-7-trifluoromethyl-2,3,4,5-tetrahydrobenzo[f][1,4]oxazepine-5-carboxylic acid cyclopentylamide] was run?
A: > 10 µM

Q: With `O=C(NC1CCCCC1)C1c2cc(C(F)(F)F)ccc2OCCN1Cc1cccc(-c2ccccc2)c1` (stereo not drawn) [Compound 15, 4-(3-phenylbenzyl)-7-trifluoromethyl-2,3,4,5-tetrahydrobenzo[f][1,4]oxazepine-5-carboxylic acid cyclohexylamide] as the molecule, how does the EC50 [1] read?
A: < 1 µM

Q: With `CC(C)(C)NC(=O)C1c2cc(F)ccc2OCCN1Cc1ccccc1-c1ccncc1` (stereo not drawn) [Compound 18, 4-[2-(pyridin-4-yl)benzyl]-7-fluoro-2,3,4,5-tetrahydrobenzo[f][1,4]oxazepine-5-carboxylic acid tert-butylamide] as the molecule, how does the EC50 [1] read?
A: 1 to 10 µM

Q: For `CC(C)(C)NC(=O)C1c2cc(F)ccc2OCCN1Cc1ccccc1-c1ccc(F)cc1` (stereo not drawn) [Compound 50, 4-[2-(4-fluorophenyl)benzyl]-7-fluoro-2,3,4,5-tetrahydrobenzo[f][1,4]oxazepine-5-carboxylic acid tert-butylamide], which EC50 [1] is on record?
A: < 1 µM

Q: `O=C(NC1CCCC1)C1c2cc(C(F)(F)F)ccc2OCC(=O)N1Cc1cccc(-c2ccccc2)c1` (stereo not drawn) [Compound 81, 4-(3-phenylbenzyl)-3-oxo-7-trifluoromethyl-2,3,4,5-tetrahydrobenzo[f][1,4]oxazepine-5-carboxylic acid cyclopentylamide] was tested. Which EC50 [1] did it give?
A: > 10 µM

Q: How did the EC50 [1] turn out when `CC(C)(C)NC(=O)C1c2ccccc2OCC(=O)N1Cc1ccccc1-c1ccncc1` (stereo not drawn) [Compound 90, 4-[2-(pyridin-4-yl)benzyl]-3-oxo-2,3,4,5-tetrahydrobenzo[f][1,4]oxazepine-5-carboxylic acid tert-butylamide] was run?
A: > 10 µM

Q: How did the EC50 [1] turn out when `Cc1ccc(-c2ccccc2CN2C(=O)COc3ccccc3C2C(=O)NC(C)(C)C)cc1` (stereo not drawn) [Compound 96, 4-[2-(4-methylphenyl)benzyl]-3-oxo-2,3,4,5-tetrahydrobenzo[f][1,4]oxazepine-5-carboxylic acid tert-butylamide] was run?
A: 1 to 10 µM

Q: For `Cc1cccc(-c2ccccc2CN2C(=O)COc3ccccc3C2C(=O)NC(C)(C)C)c1` (stereo not drawn) [Compound 97, 4-[2-(3-methylphenyl)benzyl]-3-oxo-2,3,4,5-tetrahydrobenzo[f][1,4]oxazepine-5-carboxylic acid tert-butylamide], which EC50 [1] is on record?
A: > 10 µM

Q: For `CC(CCC(=O)NCC(=O)O)C1CCC2C3CCC4CC(O)CCC4(C)C3CC(O)C12C` (stereo not drawn) [GDC, glycodeoxycholic acid], which “reduction of glucose concentration in plasma” value ([2]; GDC 5 mmol gel rectally + Sitagliptin 30 mg/kg perorally 15 min before) is on record?
A: 20%

Q: What about the “reduction of glucose concentration in plasma” value ([2]; GDC 50 mmol gel rectally + Sitagliptin 30 mg/kg perorally 15 min before) of the same molecule?
A: 24%

Q: And the “weight change of animals” value [3]?
A: effectively and statistically-valid reduced weights of experimental animals

Q: Which “lowering of glucose level in blood plasma” value ([2]; Sitagliptin alone (vehicle gel + Sitagliptin 30 mg/kg)) does the source give for `N[C@@H](CC(=O)N1CCn2c(nnc2C(F)(F)F)C1)Cc1cc(F)c(F)cc1F` [Sitagliptin, reference compound] here?
A: 5-10%
